Assay: Incorporation of 13C-labeled dicarboxylic acid anions in metabolic processes, determined by exhalation of 13CO2 in rats
Settings: aqueous solution by pipette, amount equivalent to 1 mg of acid anion, air collected 12 hours after administration, 13C-labeled compounds
Experimental: The signal incorporation in metabolism was determined by exhalation of the labeled ^13C atom in the form of ^13CO2. The experiment was conducted as follows: aqueous solutions, in the amounts equivalent to 1 mg of the acids anions they contained, were administered to rats (groups of 8 individuals, each rat weighing 225-250 g) with a pipette: amber acid, sodium fumarate (fumaric acid is almost insoluble in water), aspartic acids, Ca(SucH)2, Mg(SucH)2.4H2O, Mg(AspH)2.4H2O, Zn(FumH)2.0.5H2O, Zn(FumH)2.H2O. The animals were then quickly placed in a hermetically sealed chamber. The air from the chamber was sampled in the same amount as it was pumped in the chamber. […] After that, the mass % of 13C administer was calculated in the exhaled air.

Row | SMILES | mass % of 13C administered found in the exhaled air (as 13CO2) [%]
1 | O=C([O-])/C=C/C(=O)[O-].[Na+].[Na+] [sodium fumarate, reference compound] | 97.8
2 | N[C@@H](CC(=O)[O-])C(=O)O.N[C@@H](CC(=O)[O-])C(=O)O.O.O.O.O.[Mg+2] [Mg(AspH)2.4H2O, Acidic Magnesium Aspartate] | 47.4
3 | O.O.O.O.O=C([O-])CCC(=O)O.O=C([O-])CCC(=O)O.[Mg+2] [Mg(SucH)2.4H2O, Acidic Magnesium Succinate] | 47.7
